Biological target: T1, human M4 muscarinic acetylcholine receptor (Homo sapiens, UniProt P08173)
T1 construct: expressed in transfected cells; host or cells: CHO-K1
T1 sequence (P08173 1-479): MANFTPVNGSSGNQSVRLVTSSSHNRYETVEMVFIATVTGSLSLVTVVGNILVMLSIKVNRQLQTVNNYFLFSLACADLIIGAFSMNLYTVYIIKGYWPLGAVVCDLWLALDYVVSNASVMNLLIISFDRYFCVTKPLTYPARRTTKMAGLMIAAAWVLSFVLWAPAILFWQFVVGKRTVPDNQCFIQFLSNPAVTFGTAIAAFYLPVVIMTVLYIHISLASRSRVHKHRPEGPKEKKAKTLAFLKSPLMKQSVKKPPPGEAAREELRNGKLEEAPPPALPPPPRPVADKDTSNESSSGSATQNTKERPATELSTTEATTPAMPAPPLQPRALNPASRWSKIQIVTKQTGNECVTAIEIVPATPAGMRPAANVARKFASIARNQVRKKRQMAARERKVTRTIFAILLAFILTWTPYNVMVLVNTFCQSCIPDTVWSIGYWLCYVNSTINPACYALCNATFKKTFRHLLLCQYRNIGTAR
Assay: human FLIPR-based M4 PAM assay (Ca2+ mobilization, CHO-K1 cells with human M4 receptor and Gαqi5)
Type: cell-based
Conditions: acetylcholine at 20% of maximum response, read-out: M4 PAM IP
Procedure, shortened: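 Calcium-mobilization (FLIPR) readout in dye-loaded CHO-K1 cells co-expressing human M4 receptor and Gαqi5. Potentiation measured against acetylcholine at a concentration giving 20% of maximal response, with an optional 70% addition; the reported value is the curve inflection point from a 4-parameter logistic fit.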

| SMILES | EC50 [µM] |
| --- | --- |
| CCOC1CCN(c2nc3c(cc2C)C(=O)NC3)CC1 [Example 55, 2-(4-ethoxypiperidin-1-yl)-3-methyl-6,7-dihydro-5H-pyrrolo[3,4-b]pyridin-5-one] | 1.12 |
| Cc1c(N2CCC(OC[C@@]3(C)CC3(F)F)CC2)nc2c(c1C)C(=O)NC2 (single isomer, unassigned) [Example 329A] | 0.047 |
| Cc1cc2c(nc1N1CC[C@H](Oc3cccc(C#N)c3)[C@H](F)C1)CNC2=O [Example 19, 3-(((3R,4S)-3-fluoro-1-(3-methyl-5-oxo-6,7-dihydro-5H-pyrrolo[3,4-b]pyridin-2-yl)piperidin-4-yl)oxy)benzonitrile] | 0.057 |
| Cc1cc2c(nc1N1CCC(Oc3ccc4c(cnn4C)c3)CC1)CN(CO)C2=O [Example 272, 6-(Hydroxymethyl)-3-methyl-2-(4-((1-methyl-1H-indazol-5-yl)oxy)piperidin-1-yl)-6,7-dihydro-5H-pyrrolo[3,4-b]pyridin-5-one] | 0.395 |
| Cc1cc2c(nc1N1CCC(Oc3ccccc3)CC1)CN(C)C2=O [Example 240, 3,6-dimethyl-2-(4-phenoxypiperidin-1-yl)-6,7-dihydro-5H-pyrrolo[3,4-b]pyridin-5-one] | 0.04 |
| Cc1cc2c(nc1N1CCC(OCC3CCCCC3)CC1)CNC2=O [Example 191, 2-(4-(cyclohexylmethoxy)piperidin-1-yl)-3-methyl-6,7-dihydro-5H-pyrrolo[3,4-b]pyridin-5-one] | 0.492 |
| COCCn1cc(OC2CCN(c3nc4c(cc3C)C(=O)NC4)CC2)cn1 [Example 312A, 2-(4-((1-(2-methoxyethyl)-1H-pyrazol-4-yl)oxy)piperidin-1-yl)-3-methyl-6,7-dihydro-5H-pyrrolo[3,4-b]pyridin-5-one] | 2.51 |
